Results published in patent US8759367B2, “Compounds and methods for the prevention and treatment of cancer” (The Wistar Institute, priority 2010, dated 2014).

System: GLI1-driven reporter activity mediated by exogenous SHH (Shh-light2 cells)
Assay: GLI-dependent firefly luciferase reporter assay in Shh-light2 cells treated with SHH
Format: cell-based
Details: AKI0532 5, 2.5 or 1 μM in DMSO, alone (−SHH) or with SHH (+SHH), 2 days, FIG. 1
Procedure: Shh-light2 cells (3T3 clone stably transfected with a GLI-dependent firefly luciferase plasmid) were treated with carrier DMSO as control or AKI0532 (5, 2.5, or 1 μM in DMSO) either alone (−SHH) or in combination with SHH (+SHH) for 2 days.
For example, AKI0532 analogs shown in Table 1 can be subjected to a battery of tests that are commonly used to assess effects on SHH activity and to determine specificity. As exemplified herein for AKI0532, one screen involves examining the activation of the SHH pathway using the well-established cell line, SHH-Light2 cells. This cell line is a 3T3 clone that stably expresses a GLI-dependant firefly luciferase (Taipale, et al. (2000) Nature 406:1005-1009). […] Concentrations of each compound, ranging from 20 μM to 1 μM, can be tested. SHH-Light2 cells are seeded 24 hours prior to treatment. They were then cultured for an additional 48 hours in standard serum-containing media prior to analysis. GLI-binding site luciferase activities are measured using a commercially available luciferase reporter assay system. Treatment of SHH-Light2 cells with recombinant SHH (200 ng) results in strong induction of reporter activity. IC50 values are determined and are compared to that of AKI0532 in the same assay in order to assess which of the AKI0532 analogs have the highest levels of SHH inhibitory activity.

C[C@]12CCC(c3ccc(O)cc3)=CC1=CC[C@@]21Cc2ncccc2O1 [AKI0532]
GLI1-driven reporter activity mediated by exogenous SHH: inhibits GLI1-driven reporter activity mediated by exogenous SHH
